Test results published in patent publication US20220175768A1, “FGFR TYROSINE KINASE INHIBITORS FOR THE TREATMENT OF UROTHELIAL CARCINOMA” (Janssen Pharmaceutica NV, priority 2019, published 2022).
Where two headings read alike, the source gives them in different places.

Legend:
[1] = tested on: metastatic or surgically unresectable urothelial cancer harboring select FGFR genetic alterations; details: for ORR, BIRC assessment / ORR, investigator assessment: chemotherapy-refractory patients in Regimen 3
From the text: The study comprises a Screening Phase (molecular screening at any time prior to first dose and study screening within 30 days of first dose), a treatment phase, and a post-treatment follow-up phase. The treatment phase comprises the period from first dose until the end-of-treatment visit. The follow-up phase extends until the subject has died, withdraws consent, is lost to follow-up, or the end of study, whichever comes first.
Included patients were adults with measurable urothelial cancer per Response Evaluation Criteria in Solid Tumors version 1.1.
Patients were required to have at least 1 FGFR2/FGFR3 mutation or fusion per central lab testing of RNA from formalin-fixed, paraffin-embedded tumor samples, using a custom reverse transcriptase polymerase chain reaction assay.
The primary end point of this study is Objective Response Rate to the selected regimen (Regimen 3).
Secondary end points include progression-free survival (PFS), response duration, Overall Survival, safety, response rate in biomarker-specific subgroups, and pharmacokinetics.
The study was designed to enroll 180 patients with specified FGFR alterations. Of these, ≥88 were required in the selected regimen. […] Responses were assessed by investigators and an independent radiological review committee. Progression-free survival and overall survival were estimated using Kaplan-Meier product limit method. Data from patients who were progression free and alive or with unknown status were censored at last tumor assessment. Efficacy end points were analysed at primary analysis cut-off.

[2] = tested on: serum phosphate; assay: Pharmacodynamics: serum phosphate level; type: in vivo, human; details: consequence of FGFR inhibition
From the text: To manage phosphate elevation, phosphate binders were permitted. Avoid concomitant use with agents that can alter serum phosphate levels before the initial dose increase period based on serum phosphate levels.

[3] = Effect of food (high-fat and high-calorie meal) on pharmacokinetics in healthy subjects; type: in vivo, human
[4] = in vitro; type: in vitro ADME; details: human
[5] = Excretion following a single oral dose of radiolabeled erdafitinib; type: in vivo, human
[6] = Pharmacokinetics in specific populations; type: in vivo, human; details: age 21-88 years, sex, race, body weight 36-132 kg, mild or moderate renal impairment, mild hepatic impairment
[7] = human, in vivo
[8] = clinical; details: human, in vivo
[9] = 187 patients with cancer; large effect i.e. >20 ms
[10] = Chemotherapy-refractory patients in Regimen 3 (N = 87)
[11] = Regimen 1, 10 mg intermittent (n = 33)
[12] = Regimen 2, 6 mg continuous (n = 78)
[13] = Regimen 3, of 97 patients with ≥1 postbaseline disease evaluation

COc1cc(OC)cc(N(CCNC(C)C)c2ccc3ncc(-c4cnn(C)c4)nc3c2)c1 [erdafitinib, N-(3,5-dimethoxy-phenyl)-N′-(1-methylethyl)-N-[3-(1-methyl-1H-pyrazol-4-yl)quinoxalin-6-yl]ethane-1,2-diamine]
Objective response rate per investigator assessment ([1]; 8 mg non-uptitrated continuous dose regimen, Regimen 3): (34.5) % | Objective response rate per investigator assessment ([1]; 8 mg uptitrated to 9 mg continuous dose regimen, Regimen 3): (48.8) % | Objective response rate per investigator assessment ([1]; Bone metastases, Regimen 1, 10 mg intermittent): (17) % | Objective response rate per investigator assessment ([1]; Bone metastases, Regimen 2, 6 mg continuous): (40) % | Objective response rate per investigator assessment ([1]; Bone metastases, Regimen 3, 8 mg continuous): (31.8) % | Objective response rate per investigator assessment ([1]; Chemotherapy-naïve, Regimen 1, 10 mg intermittent): (25) % | Objective response rate per investigator assessment ([1]; Chemotherapy-naïve, Regimen 2, 6 mg continuous): (0) % | Objective response rate per investigator assessment ([1]; Chemotherapy-naïve, Regimen 3, 8 mg continuous): (41.7) % | Complete response (CR), investigator assessment [1, 10]: 3.4% | Partial response (PR), investigator assessment [1, 10]: 36.8% | ORR, BIRC assessment ([1]; FGFR2 Fusion (N = 6)): 0% | ORR, BIRC assessment ([1]; FGFR3 Fusion (N = 18)): 11.1% | ORR, BIRC assessment ([1]; FGFR3 Point Mutation (N = 64)): 40.6% | ORR, investigator assessment ([1]; FGFR3 Point Mutation (N = 64)): 48.4% | ORR, investigator assessment ([1]; FGFR Fusion (N = 23)): 17.4% | Objective response rate per investigator assessment ([1]; Liver metastases, Regimen 1, 10 mg intermittent): (27) % | Objective response rate per investigator assessment ([1]; Liver metastases, Regimen 2, 6 mg continuous): (24) % | Objective response rate per investigator assessment ([1]; Liver metastases, Regimen 3, 8 mg continuous): (35.0) % | Objective response rate per investigator assessment ([1]; Lower tract disease, Regimen 1, 10 mg intermittent): (9) % | Objective response rate per investigator assessment ([1]; Lower tract disease, Regimen 2, 6 mg continuous): (39) % | Objective response rate per investigator assessment ([1]; Lower tract disease, Regimen 3, 8 mg continuous): (39.5) % | Objective response rate per investigator assessment ([1]; Lung metastases, Regimen 1, 10 mg intermittent): (27) % | Objective response rate per investigator assessment ([1]; Lung metastases, Regimen 2, 6 mg continuous): (41) % | Objective response rate per investigator assessment ([1]; Lung metastases, Regimen 3, 8 mg continuous): (40.4) % | Objective response rate per investigator assessment ([1]; Lymph node metastases only, Regimen 1, 10 mg intermittent): (0) % | Objective response rate per investigator assessment ([1]; Lymph node metastases only, Regimen 2, 6 mg continuous): (67) % | Objective response rate per investigator assessment ([1]; Lymph node metastases only, Regimen 3, 8 mg continuous): (33.3) % | Objective response rate per investigator assessment ([1]; No. of lines of prior systemic therapy 0, Regimen 3, 8 mg continuous): (36.4) % | Objective response rate per investigator assessment ([1]; No. of lines of prior systemic therapy 1, Regimen 3, 8 mg continuous): (37.8) % | Objective response rate per investigator assessment ([1]; No. of lines of prior systemic therapy 2, Regimen 3, 8 mg continuous): (37.9) % | Objective response rate per investigator assessment ([1]; No. of lines of prior systemic therapy 3, Regimen 3, 8 mg continuous): (60.0) % | Objective response rate per investigator assessment ([1]; No. of lines of prior systemic therapy ≥4, Regimen 3, 8 mg continuous): (50.0) % | Objective response rate per investigator assessment ([1]; Progressed or relapsed after chemotherapy, Regimen 1, 10 mg intermittent): (21) % | Objective response rate per investigator assessment ([1]; Progressed or relapsed after chemotherapy, Regimen 2, 6 mg continuous): (37) % | Objective response rate per investigator assessment ([1]; Progressed or relapsed after chemotherapy, Regimen 3, 8 mg continuous): (40.2) % | Median progression-free survival per investigator assessment ([1]; Regimen 1): 4.8 months | Overall survival rate at 12 months ([1]; Regimen 1): 31% | Progression-free survival rate at 12 months ([1]; Regimen 1): 18% | Complete response per investigator assessment [1, 11]: 1 no. | Median time to response [1, 11]: 1.4 mo | Median overall survival ([1]; Regimen 1, median follow-up 22.9 months): 7.5 months | Median progression-free survival per investigator assessment ([1]; Regimen 2): 5.3 months | Overall survival rate at 12 months ([1]; Regimen 2): 33% | Progression-free survival rate at 12 months ([1]; Regimen 2): 11% | Complete response per investigator assessment [1, 12]: 3 no. | Median time to response [1, 12]: 1.4 mo | Median overall survival ([1]; Regimen 2, median follow-up 18.5 months): 8.6 months | Responses maintained for >12 months ([1]; Regimen 3): roughly 30% | Survival rate at 12 months ([1]; Regimen 3): 55% | Median time to response ([1]; Regimen 3, 8 mg continuous (n = 99)): 1.4 mo | Median progression-free survival ([1]; Regimen 3, 8 mg per day continuous (FIG. 5A)): 5.5 months | Median overall survival ([1]; Regimen 3, 8 mg per day continuous (FIG. 5B)): 13.8 months | Patients who responded ([1]; Regimen 3, FGFR3-TACC3 V1 fusion (n=11)): 36.4% | Disease stabilization lasting >6 months ([1]; Regimen 3, among 39 patients with stable disease): 33% | Additional patients with stable disease ([1]; Regimen 3, patients with FGFR mutations (n=74)): 26 patients | Progression-free survival rate at 12 months ([1]; Regimen 3, per investigator assessment): 19% | Patients with maximum tumor reduction between 30% and 100% [1, 13]: 49% | Patients with reduction in sum of target lesion diameters [1, 13]: 77% | Objective response rate per investigator assessment ([1]; Upper tract disease, Regimen 1, 10 mg intermittent): (46) % | Objective response rate per investigator assessment ([1]; Upper tract disease, Regimen 2, 6 mg continuous): (23) % | Objective response rate per investigator assessment ([1]; Upper tract disease, Regimen 3, 8 mg continuous): (43.5) % | Objective response rate per investigator assessment ([1]; With FGFR2/3 fusions, Regimen 1, 10 mg intermittent): (0) % | Objective response rate per investigator assessment ([1]; With FGFR2/3 fusions, Regimen 2, 6 mg continuous): (17) % | Objective response rate per investigator assessment ([1]; With FGFR3 mutations, Regimen 1, 10 mg intermittent): (22) % | Objective response rate per investigator assessment ([1]; With FGFR3 mutations, Regimen 2, 6 mg continuous): (36) % | Objective response rate per investigator assessment ([1]; With visceral metastases, Regimen 1, 10 mg intermittent): (29) % | Objective response rate per investigator assessment ([1]; With visceral metastases, Regimen 2, 6 mg continuous): (32) % | Objective response rate per investigator assessment ([1]; With visceral metastases, Regimen 3, 8 mg continuous): (38.5) % | Objective response rate per investigator assessment ([1]; Without visceral metastases, Regimen 1, 10 mg intermittent): (0) % | Objective response rate per investigator assessment ([1]; Without visceral metastases, Regimen 2, 6 mg continuous): (42) % | Objective response rate per investigator assessment ([1]; Without visceral metastases, Regimen 3, 8 mg continuous): (47.6) % | Effect on serum phosphate level [2]: increased serum phosphate level | Effect of food on erdafitinib pharmacokinetics [3]: No clinically meaningful differences | fraction unbound [4]: 0.002 | Dose recovered in feces [5]: approximately 69% | Dose recovered in feces as unchanged [5]: 19% | Dose recovered in urine [5]: 19% | Dose recovered in urine as unchanged [5]: 13% | Trends in pharmacokinetics in specific populations [6]: No clinically meaningful trends | Circulating metabolites in plasma [7]: no circulating metabolites | Exposure (Cmax and AUC) versus dose [7]: increased proportionally | Mean total apparent clearance (CL/F) [7]: 0.362 L/h | Time to steady state [7]: 2 weeks | Vd [8]: 29 L | half-life [8]: 59 h | Effect on the QTc interval [9]: no large effect
